Experimental data: patent publication US20240067702A1, “LACTAM-MODIFIED P[…]” (DONGBAO PURPLE STAR (HANGZHOU) BIOPHARMACEUTICAL CO., LTD., priority 2020, published 2024)
Like-named read-outs stand apart in the source and are kept apart here. *1 amine or outer side, *2 acyl side, *3 side chain or, on linkers, in order; H or OH if unused. Where a SMILES comes first, the peptide text is derived from it. Bridges are numbered along the chain shown (N, C = ends). Side-chain parts run from the residue outwards. [ ]: non-standard residue; d: D form. The star is where a group is joined. C20 diacid = O=C(O)CCCCCCCCCCCCCCCCCCC(=O)*; γGlu = O=C(O)[C@H](CCC(=O)[*:2])N[*:1]; AEEA = NCCOCCOCC(=O)O; Aib = CC(C)(N)C(=O)O

Experiments:
[1] = Plasma stability (PLS) test, human plasma; assay type: in vitro ADME; conditions: up to 120 min, read-out: PLS (H/M) T1/2, H; for half-life at 2 μM: pH 7.4, 37° C.
GIPR = target: T1, GIPR (Homo sapiens, UniProt P48546); assay: GIPR agonist activity test in vitro (cAMP assay); assay type: cell-based; conditions: GIPR Agonist Activity EC50 (−) 1% HSA, CHO host cell; without 1% HSA
T1 construct: host or cells: CHO
T1 sequence (P48546 22-466): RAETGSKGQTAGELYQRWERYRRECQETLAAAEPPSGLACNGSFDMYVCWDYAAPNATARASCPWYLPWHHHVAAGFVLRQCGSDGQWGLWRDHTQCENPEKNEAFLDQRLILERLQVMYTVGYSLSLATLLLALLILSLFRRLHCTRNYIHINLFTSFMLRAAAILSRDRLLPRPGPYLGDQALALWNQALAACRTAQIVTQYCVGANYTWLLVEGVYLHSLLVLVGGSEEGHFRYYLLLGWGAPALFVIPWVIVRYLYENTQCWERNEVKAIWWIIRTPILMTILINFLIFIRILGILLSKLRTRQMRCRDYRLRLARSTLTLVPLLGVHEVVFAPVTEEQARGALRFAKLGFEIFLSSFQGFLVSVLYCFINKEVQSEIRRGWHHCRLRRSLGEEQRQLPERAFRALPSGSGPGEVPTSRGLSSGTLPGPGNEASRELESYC
Description: The cell strains were constructed by Shanghai WuXi AppTec.
The test compound was serially diluted 4-fold with 10 points. The initial concentration was 30 μM, and the dilution was completed with Bravo.
1) 100 nL of the compound was transferred to OptiPlate-384 plate using Echo.
7) The GLP-1R/GIPR cell concentration was diluted to 2.0*10^5/mL with the experimental buffer.
8) […] of the diluted cell suspension was transferred into the OptiPlate-384 plate.
9) The diluted cell suspension was incubated at room temperature for 30 minutes.
2) 10 μL of cAMP detection reagent was added.
3) The OptiPlate-384 plate was covered with TopSeal-A film and incubated at room temperature for 60 minutes.
TopSeal-A was removed and read in EnVision.

[2] = Pharmacokinetic evaluation in cynomolgus monkeys; assay type: in vivo; conditions: cynomolgus monkey, 0.02 mg/kg, single SC 0.02 mpk; for half-life: read-out: Half-life T1/2 (converted); for AUC(0-t): read-out: SC Concentration Integral AUC0-240 h
Description: To test the pharmacokinetics of compounds in cynomolgus monkeys in vivo
The pharmacokinetic characteristics of the compounds in mammals after intravenous injection and subcutaneous injection were tested according to the standard protocol. In the experiment, the candidate compounds were formulated into clear solutions, and a single subcutaneous injection (SC, 0.02 mpk) was given to the cynomolgus monkeys. The vehicle for subcutaneous injection was citrate buffer (20 mM, pH=7). Whole blood was collected and prepared to obtain plasma. Drug concentration was analyzed by LC-MS/MS method, and pharmacokinetic parameters were calculated by Phoenix WinNonlin software.

Compound	half-life ([1]; 2 μM, 37° C.) [h]	EC50 (GIPR) [pM]	Cmax ([2]; in vivo) [nM]	Tmax ([2]; in vivo) [h]	half-life ([2]; in vivo) [h]	AUC(0-t) ([2]; in vivo) [µM·h]	half-life at 2 μM [1] [h]	Cmax ([2]; plasma) [nM]	Tmax ([2]; plasma) [h]	half-life ([2]; plasma) [h]	AUC(0-t) ([2]; plasma) [µM·h]
CC[C@H](C)[C@H](NC(=O)[C@H](CC(C)C)NC(=O)[C@H](Cc1c[nH]c2ccccc12)NC(=O)[C@@H]1CCC(=O)NCCCC[C@H](NC(=O)[C@H](CCC(N)=O)NC(=O)[C@H](C)NC(=O)[C@H](CCCCNC(=O)COCCOCCNC(=O)COCCOCCNC(=O)CC[C@H](NC(=O)CC[C@H](NC(=O)CCCCCCCCCCCCCCCCCCC(=O)O)C(=O)O)C(=O)O)NC(=O)[C@H](CCCCN)NC(=O)[C@H](CC(=O)O)NC(=O)[C@H](CC(C)C)NC(=O)C(C)(C)NC(=O)[C@@H](NC(=O)[C@H](CO)NC(=O)[C@H](Cc2ccc(O)cc2)NC(=O)[C@H](CC(=O)O)NC(=O)[C@H](CO)NC(=O)[C@@H](NC(=O)[C@H](Cc2ccccc2)NC(=O)[C@@H](NC(=O)CNC(=O)[C@H](CCC(=O)O)NC(=O)C(C)(C)NC(=O)[C@@H](N)Cc2ccc(O)cc2)[C@@H](C)O)[C@@H](C)O)[C@@H](C)CC)C(=O)N[C@@H](C)C(=O)N[C@@H](Cc2ccccc2)C(=O)N[C@@H](C(C)C)C(=O)N1)C(=O)N[C@@H](C)C(=O)NCC(=O)NCC(=O)N1CCC[C@H]1C(=O)N[C@@H](CO)C(=O)N[C@@H](CO)C(=O)NCC(=O)N[C@@H](C)C(=O)N1CCC[C@H]1C(=O)N1CCC[C@H]1C(=O)N1CCC[C@H]1C(=O)N[C@@H](CO)C(N)=O [WX-002] (H-Y[Aib]EGTFTSDYSI[Aib]LDKK([AEEA-AEEA-γGlu-γGlu-C20 diacid])AQKAFVEWLIAGGPSSGAPPPS-NH2; lactam 20-24)	> 4.82	290	33	29	81	4.58	–	–	–	–	–
CC[C@H](C)[C@H](NC(=O)[C@H](CC(C)C)NC(=O)[C@H](Cc1c[nH]c2ccccc12)NC(=O)[C@@H]1CCC(=O)NCCCC[C@H](NC(=O)[C@H](CCC(N)=O)NC(=O)[C@H](C)NC(=O)[C@H](CCCCNC(=O)COCCOCCNC(=O)COCCOCCNC(=O)CC[C@H](NC(=O)CCCCCCCCCCCCCCCCCCC(=O)O)C(=O)O)NC(=O)[C@H](CCCCN)NC(=O)[C@H](CC(=O)O)NC(=O)[C@H](CC(C)C)NC(=O)C(C)(C)NC(=O)[C@@H](NC(=O)[C@H](CO)NC(=O)[C@H](Cc2ccc(O)cc2)NC(=O)[C@H](CC(=O)O)NC(=O)[C@H](CO)NC(=O)[C@@H](NC(=O)[C@H](Cc2ccccc2)NC(=O)[C@@H](NC(=O)CNC(=O)[C@H](CCC(=O)O)NC(=O)C(C)(C)NC(=O)[C@@H](N)Cc2ccc(O)cc2)[C@@H](C)O)[C@@H](C)O)[C@@H](C)CC)C(=O)N[C@@H](C)C(=O)N[C@@H](Cc2ccccc2)C(=O)N[C@@H]([C@@H](C)CC)C(=O)N1)C(=O)N[C@@H](C)C(=O)NCC(=O)NCC(=O)N1CCC[C@H]1C(=O)N[C@@H](CO)C(=O)N[C@@H](CO)C(=O)NCC(=O)N[C@@H](C)C(=O)N1CCC[C@H]1C(=O)N1CCC[C@H]1C(=O)N1CCC[C@H]1C(=O)N[C@@H](CO)C(N)=O [WX-006] (H-Y[Aib]EGTFTSDYSI[Aib]LDKK([AEEA-AEEA-γGlu-C20 diacid])AQKAFIEWLIAGGPSSGAPPPS-NH2; lactam 20-24)	–	450	–	–	–	–	> 4.82	30	29	72.4	3.64
CC[C@H](C)[C@H](NC(=O)[C@H](CC(C)C)NC(=O)[C@H](Cc1c[nH]c2ccccc12)NC(=O)[C@@H]1CCC(=O)NCCCC[C@H](NC(=O)[C@H](CCC(N)=O)NC(=O)[C@H](C)NC(=O)[C@H](CCCCNC(=O)COCCOCCNC(=O)COCCOCCNC(=O)CC[C@H](NC(=O)CCCCCCCCCCCCCCCCCCC(=O)O)C(=O)O)NC(=O)[C@H](CCCCN)NC(=O)[C@H](CC(=O)O)NC(=O)[C@H](CC(C)C)NC(=O)C(C)(C)NC(=O)[C@@H](NC(=O)[C@H](CO)NC(=O)[C@H](Cc2ccc(O)cc2)NC(=O)[C@H](CC(=O)O)NC(=O)[C@H](CO)NC(=O)[C@@H](NC(=O)[C@H](Cc2ccccc2)NC(=O)[C@@H](NC(=O)CNC(=O)[C@H](CCC(=O)O)NC(=O)C(C)(C)NC(=O)[C@@H](N)Cc2ccc(O)cc2)[C@@H](C)O)[C@@H](C)O)[C@@H](C)CC)C(=O)N[C@@H](CCC(=O)O)C(=O)N[C@@H](Cc2ccccc2)C(=O)N[C@@H](C(C)C)C(=O)N1)C(=O)N[C@@H](C)C(=O)NCC(=O)NCC(=O)N1CCC[C@H]1C(=O)N[C@@H](CO)C(=O)N[C@@H](CO)C(=O)NCC(=O)N[C@@H](C)C(=O)N1CCC[C@H]1C(=O)N1CCC[C@H]1C(=O)N1CCC[C@H]1C(=O)N[C@@H](CO)C(N)=O [WX-005] (H-Y[Aib]EGTFTSDYSI[Aib]LDKK([AEEA-AEEA-γGlu-C20 diacid])AQKEFVEWLIAGGPSSGAPPPS-NH2; lactam 20-24)	–	220	–	–	–	–	> 4.82	31	40	98	4.55
